Data: patent US20260125346A1, “Isoquinolinone Derivatives and 4H-Quinolizinone Derivatives and Pharmaceutical Compositions Thereof for the Treatment of Disease” (BeOne Medicines I GmbH, priority 2023, published 2026)

Assays:
[1] = target: PI3Kα (p110[H1047R]/p85) kinase (Homo sapiens, UniProt P42336, H1047R); assay: PI3Kα (p110[H1047R]/p85) kinase ADP-Glo Assay; format: biochemical; conditions: 25 uM ATP; for selectivity: WT/H1047R: ADP-Glo Assay IC50 ratio
Procedure, shortened: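 PI3Kα H1047R/p85 pre-incubated 30 min at room temperature with PI(4,5)P2:PS substrate ([…]) and compound ([…]) in HEPES pH 7.5 buffer with MgCl2; ATP ([…]) then added for 120 min. ADP quantified by ADP-Glo luminescence; IC50 from four-parameter logistic fit.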

[2] = tested on: WT cell line SK-BR-3; assay: Phospho-AKT (Ser473) Inhibition Assay (HTRF), SK-BR-3; format: cell-based; conditions: Homo sapiens; SK-BR-3, 1 hour treatment; read-out: p-AKT Inhibition assay (S473) IC50 SK-BR-3
Procedure, shortened: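 SK-BR-3 (PI3Kα WT) cells seeded overnight in MEM with insulin, then treated 1 h with 11-point 1:3 dilutions (10 μM to 0.1 nM, 0.1% DMSO). Lysates read for phospho-AKT Ser473 by HTRF after 4 h antibody incubation at room temperature. IC50 from 4-parameter fit, % inhibition normalized to DMSO (max) and 10 μM GDC0077 (min).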

[3] = tested on: PI3Kα H1047R mutated cell line T-47D cells; assay: Cell Proliferation Assay (CellTiter-Glo), T-47D; format: cell-based; conditions: for IC50: Homo sapiens, T47D, 72 h, T-47D, 3 days treatment; for Selectivity: SK-BR-3/T-47D (cell proliferation): cell proliferation IC50 ratio
Procedure, shortened: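 T-47D cells seeded overnight at 3×10^3/well, then exposed 3 days to 9-point 1:3 dilutions, final […] to 1 nM in 0.1% DMSO. CellTiter-Glo luminescence; relative IC50 from percent inhibition versus medium-only and 0.1% DMSO controls, 4-parameter logistic fit.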

[4] = tested on: WT cell line SK-BR-3; assay: Cell Proliferation Assay (CellTiter-Glo), SK-BR-3; format: cell-based; conditions: Homo sapiens, 72 h; SK-BR-3, 3 days treatment
Procedure, shortened: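 SK-BR-3 cells treated for 3 days with compound in a 9-point series, final concentrations 10 M to 1 nM in 0.1% DMSO. Viability read by CellTiter-Glo luminescence. Relative IC50 from percent inhibition versus medium-only and DMSO controls, four-parameter logistic fit.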

Sequence of PI3Kα (p110[H1047R]/p85) kinase (P42336 whole entry H1047R): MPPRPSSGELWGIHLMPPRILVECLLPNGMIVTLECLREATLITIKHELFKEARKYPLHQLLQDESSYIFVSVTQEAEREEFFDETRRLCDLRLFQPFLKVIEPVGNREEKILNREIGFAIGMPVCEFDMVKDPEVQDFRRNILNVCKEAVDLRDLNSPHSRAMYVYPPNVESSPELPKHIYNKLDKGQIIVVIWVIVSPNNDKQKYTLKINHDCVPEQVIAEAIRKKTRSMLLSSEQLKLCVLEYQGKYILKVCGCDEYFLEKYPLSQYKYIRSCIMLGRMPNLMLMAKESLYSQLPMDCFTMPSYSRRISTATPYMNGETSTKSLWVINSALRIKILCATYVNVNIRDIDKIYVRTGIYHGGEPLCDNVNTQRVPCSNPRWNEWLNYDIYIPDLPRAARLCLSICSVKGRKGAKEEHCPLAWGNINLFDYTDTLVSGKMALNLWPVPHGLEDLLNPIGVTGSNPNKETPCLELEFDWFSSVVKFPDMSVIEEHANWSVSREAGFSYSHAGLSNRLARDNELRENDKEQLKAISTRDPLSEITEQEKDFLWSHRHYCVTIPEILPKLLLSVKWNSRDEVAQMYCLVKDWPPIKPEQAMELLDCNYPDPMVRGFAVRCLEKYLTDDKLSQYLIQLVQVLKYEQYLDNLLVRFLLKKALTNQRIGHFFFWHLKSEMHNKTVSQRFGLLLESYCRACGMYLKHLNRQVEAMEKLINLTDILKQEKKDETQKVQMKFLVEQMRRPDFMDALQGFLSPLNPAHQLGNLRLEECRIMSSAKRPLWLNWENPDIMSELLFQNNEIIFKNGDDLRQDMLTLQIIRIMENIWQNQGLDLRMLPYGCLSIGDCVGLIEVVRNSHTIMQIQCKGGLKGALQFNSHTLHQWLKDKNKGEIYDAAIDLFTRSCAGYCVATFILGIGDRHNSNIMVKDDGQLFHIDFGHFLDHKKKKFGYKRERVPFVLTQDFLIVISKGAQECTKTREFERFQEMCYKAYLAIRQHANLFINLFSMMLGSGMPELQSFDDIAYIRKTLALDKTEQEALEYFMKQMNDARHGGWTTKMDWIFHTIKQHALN
Sequence of PI3Kα (p110[H1047R]/p85) kinase (P27986 whole entry partner): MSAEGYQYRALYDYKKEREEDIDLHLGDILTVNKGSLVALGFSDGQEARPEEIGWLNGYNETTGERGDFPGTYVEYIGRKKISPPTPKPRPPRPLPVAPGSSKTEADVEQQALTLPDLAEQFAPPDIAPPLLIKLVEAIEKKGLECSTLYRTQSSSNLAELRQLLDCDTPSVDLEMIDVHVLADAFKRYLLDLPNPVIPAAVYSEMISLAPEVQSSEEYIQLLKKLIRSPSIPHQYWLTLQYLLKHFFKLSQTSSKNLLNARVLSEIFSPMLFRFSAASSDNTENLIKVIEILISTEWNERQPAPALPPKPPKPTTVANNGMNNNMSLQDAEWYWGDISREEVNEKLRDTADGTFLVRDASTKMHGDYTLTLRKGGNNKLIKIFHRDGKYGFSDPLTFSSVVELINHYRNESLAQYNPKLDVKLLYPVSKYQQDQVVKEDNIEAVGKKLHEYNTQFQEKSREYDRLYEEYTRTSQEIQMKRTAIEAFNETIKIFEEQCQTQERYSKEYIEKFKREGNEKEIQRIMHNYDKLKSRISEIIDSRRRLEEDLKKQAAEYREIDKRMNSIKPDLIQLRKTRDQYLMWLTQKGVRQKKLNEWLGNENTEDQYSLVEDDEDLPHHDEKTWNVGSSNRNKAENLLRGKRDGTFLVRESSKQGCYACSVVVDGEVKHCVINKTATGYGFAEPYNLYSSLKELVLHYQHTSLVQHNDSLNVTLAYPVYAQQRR

Row | Structure (SMILES) | IC50 [1] [nM] | selectivity: WT/H1047R [1] | IC50 [2] [nM] | IC50 [3] [nM] | IC50 [4] [nM] | Selectivity: SK-BR-3/T-47D (cell proliferation) [3]
1 | Cc1cc(C(C)Nc2sc3ccccc3c2C(=O)O)c2cc(-c3ccccc3)n(C)c(=O)c2c1 (centres unmarked) [Example 92, 2-((1-(2,7-dimethyl-1-oxo-3-phenyl-1,2-dihydroisoquinolin-5-yl)ethyl)amino)benzo[b]thiophene-3-carboxylic acid] | 887 | >113 | > 10000 | > 10000 | > 10000 | –
2 | Cc1cc(C(C)Nc2ccccc2C(=O)O)c2cc(-c3cnn(C)c3)n(C)c(=O)c2c1 (centres unmarked) [Example 91, 2-((1-(2,7-dimethyl-3-(1-methyl-1H-pyrazol-4-yl)-1-oxo-1,2-dihydroisoquinolin-5-yl)ethyl)amino)benzoic acid] | 240 | 40.9 | 4730 | 287 | > 10000 | >35
3 | Cc1cc(C(C)Nc2ccccc2C(=O)O)c2cc(-c3ccc(C#N)cc3)n(C)c(=O)c2c1 (centres unmarked) [Example 4, 2-((1-(3-(4-cyanophenyl)-2,7-dimethyl-1-oxo-1,2-dihydroisoquinolin-5-yl)ethyl)amino)benzoic acid] | 443 | 8.7 | > 10000 | 112 | > 10000 | >89
